{
  "source": "patent US11744876B2",
  "about": "“Immunomodulator antibody drug conjugates and uses thereof” (Sutro Biopharma, Inc., priority 2019, dated 2023)",
  "key": {"[1]": {"tested_on": "MDA-MB-468 (Her2-)", "assay": "In vitro cytotoxicity (Cell Titer-Glo, 120 hrs) on MDA-MB-468 cells", "assay_type": "cell-based", "details": "Homo sapiens, Table 6, Experiment #2, read-out: Cell Killing on MDA-MB-468 (Her2-) EC50", "from_the_text": "(§1) FOLR1-positive KB or Igrov1 cells, FOLR1-negative A549 cells, Her2 positive SKBR3 cells and Her2 negative MDA-MB-468 cells, Muc16-positive OVCAR3 and Mucl6-negative Skov3 were maintained in Ham's F-12: high glucose DMEM (50:50) (Corning) supplemented with 10% heat-inactivated fetal bovine serum (Corning), 1% Penicillin/Streptomycin (Corning) and 2 mmol/L-glutamax (Thermo Fisher Scientific). Adherent cells were washed twice with PBS, harvested with Acutase and counted by the Vi-CELL cell viability analyzer. A total of 625 cells were seeded in each well of a 384-well flat bottom white polystyrene plate. ADC, ISAC, and iADC conjugates were formulated at 2-fold starting concentration in the cell culture medium and filtered through MultiScreenHTS 96-Well Filter Plates (Millipore; Billerica, Mass.). Serial dilutions of test samples (1:3 serial dilution starting from 100 nM) was added into treatment wells. Assay plates were cultured at 37° C. in a CO2 incubator for 120 hrs before assay. For cell viability measurement, 30 μL of Cell Titer-Glo® reagent (Promega Corp. Madison, Wis.) was added into each well, and plates were processed as per product instructions. Relative luminescence was measured on an ENVISION® plate reader (Perkin-Elmer; Waltham, Mass.). Relative luminescence readings were converted to percent viability using untreated cells as controls. […]"}, "[2]": {"tested_on": "SKBR3 (Her2+)", "assay": "In vitro cytotoxicity (Cell Titer-Glo, 120 hrs) on SKBR3 cells", "assay_type": "cell-based", "details": "Homo sapiens, SK-BR-3, Table 6, Experiment #2, read-out: Cell Killing on SKBR3 (Her2+) EC50", "from_the_text": "as §1"}, "[3]": {"tested_on": "Skov3 (Muc16−)", "assay": "In vitro cytotoxicity (Cell Titer-Glo, 120 hrs) on Skov3 cells", "assay_type": "cell-based", "details": "Homo sapiens, SK-OV-3, Table 7, Experiment #2, read-out: Cell Killing on Skov3 (Muc16−) EC50", "from_the_text": "as §1"}, "[4]": {"tested_on": "FolR1 + Igrov1 Cells", "assay": "In vitro cytotoxicity (Cell Titer-Glo, 120 hrs) on Igrov1 cells", "assay_type": "cell-based", "from_the_text": "as §1"}, "[5]": {"tested_on": "B cells", "assay": "Immune cell activation in PBMCs with KB cells: B cells (CD86 on CD14-/Lin+/HLA-DR+ cells)", "assay_type": "cell-based, human", "details": "Example 29; PBMCs from two donors with KB cells, two days", "procedure": "(§2) This example evaluates the ability of three homogeneous iADCs to stimulate the activation of different immune cell populations (monocyte, B cell, and DCs). Free TLR7 agonists, free hemiasterlin warhead, anti-FolRα-ADC, and the corresponding ISACs were used as controls in the experiment. PBMCs from two healthy donors were isolated using similar protocol as descripted in previous examples. PBMCs were treated with three homogeneous iADC and controls in the presence of FolR1 positive KB cells for two days. The immune cells were then stained with different cell population markers and activation markers. Monocyte activation was indicated as increase of CD86 expression on CD14+ cells. B cell activation was indicated as increase of CD86 expression on CD14-/Lin+/HLA-DR+ cells. Dendritic cells (DC) activation was indicated as increase of CD86 expression on CD14-/Lin-/HLA-DR+/CD123+ cells."}, "[6]": {"tested_on": "KB (FolR1+)", "assay": "In vitro cytotoxicity (Cell Titer-Glo, 120 hrs) on KB cells", "assay_type": "cell-based", "details": "Homo sapiens, Table 21, Example 28, homogeneous iADCs", "from_the_text": "as §1"}, "[7]": {"tested_on": "A549 (FolR1−)", "assay": "In vitro cytotoxicity (Cell Titer-Glo, 120 hrs) on A549 cells", "assay_type": "cell-based", "details": "Homo sapiens, Table 21, Example 28, homogeneous iADCs", "from_the_text": "as §1"}, "[8]": {"tested_on": "monocytes", "assay": "Immune cell activation in PBMCs with KB cells: monocytes (CD86 on CD14+ cells)", "assay_type": "cell-based, human", "details": "Example 29; PBMCs from two donors with KB cells, two days", "procedure": "as §2"}, "[9]": {"tested_on": "Dendritic cells (DC)", "assay": "Immune cell activation in PBMCs with KB cells: DCs (CD86 on CD14-/Lin-/HLA-DR+/CD123+ cells)", "assay_type": "cell-based, human", "details": "Example 29; PBMCs from two donors with KB cells, two days", "procedure": "as §2"}, "[10]": {"tested_on": "monocytes in human PBMCs", "assay": "Monocyte activation (% CD86+ within CD14+) in isolated monocytes or PBMCs co-cultured with FolR1 positive KB cells", "assay_type": "cell-based", "details": "48 hr co-culture with FolR1 positive KB cells", "procedure": "PBMCs were isolated from human blood donors by Leukosep tube and Nycoprep 1.077 buffer according to the manufacture's recommendation. CD14+ monocytes were isolated by immunomagnetic negative selection from fresh PBMCs (StemCell #19359—EasySep Human Monocyte Isolation Kit). PBMCs and monocytes were cultured in RPMI supplemented with 10% heat-inactivated fetal bovine serum from Hyclone, 1% Penicillin/Streptomycin and 2 mmol/L-glutamax before the assay. On the day of assay, 300,000 of PBMC or 30,000 of monocytes in 40 ul of culture medium were seeded in 96-well cell culture plates. 40 ul of the test articles (formulated at 3× of starting concentration, 1:10 serial dilution) and 40 ul of 10,000 Oregon green stained target cells were then added into the well. The cell mixtures were co-cultured in the presence of test articles and 10 ug/ml LPS-RS for 48 hr. […] Cells were washed, fixed with 2% PFA overnight, and read on the Attune NxT cytometer (Thermo Fisher). […]\nPBMCs were isolated from human blood donors by Leukosep tube and Nycoprep 1.077 buffer according to the manufacture's recommendation. […] Cells were washed, fixed with 2% PFA overnight, and read on the Attune NxT cytometer (Thermo Fisher). […]"}},
  "note": "Read-outs that look alike come from different tables or passages of the source.",
  "data": [
    {"smiles": "CCCCc1nc2c(N)nc3ccccc3c2n1Cc1ccc(CN)cc1", "note": "[Compound 4]", "values": [
      {"measurement": "EC50", "setting": "[1]", "result": "> 100", "unit": "nM"},
      {"measurement": "EC50", "setting": "[2]", "result": "> 100", "unit": "nM"},
      {"measurement": "EC50", "setting": "[3]", "result": "> 100", "unit": "nM"},
      {"measurement": "EC50", "setting": "[4]; Homo sapiens, IGROV-1, 120 h, read-out: Cell Killing on FolR1 + Igrov1 Cells EC50", "result": "> 100", "unit": "nM"}
    ]},
    {"smiles": "CCCCc1nc2c(N)nc3ccccc3c2n1OCCCCN", "note": "[Compound 5]", "values": [
      {"measurement": "EC50", "setting": "[4]; Experiment #1, 120 hrs, NK = no cell killing detected", "result": "> 100", "unit": "nM"}
    ]},
    {"smiles": "CCCCCNc1nc(N)nc2ccn(Cc3ccc(CN4CC5(CNCCO5)C4)cc3OC)c12", "note": "[Compound 7, 5-(4-((5-oxa-2,8-diazaspiro[3.5]nonan-2-yl)methyl)-2-methoxybenzyl)-N4-pentyl-5H-pyrrolo[3,2-d]pyrimidine-2,4-diamine]", "values": [
      {"measurement": "activation of B cells, in words", "setting": "[5]", "result": "much more potent"},
      {"measurement": "EC50", "setting": "[6]", "result": "> 100", "unit": "nM"},
      {"measurement": "EC50", "setting": "[7]", "result": "> 100", "unit": "nM"},
      {"measurement": "activation of monocytes, in words", "setting": "[8]", "result": "much more potent"},
      {"measurement": "activation of DCs, in words", "setting": "[9]", "result": "much more potent"}
    ]},
    {"smiles": "CCCCc1nc2c(N)nc3ccccc3c2n1Cc1ccc(CNC(=O)OCc2ccc(NC(=O)[C@H](CCCNC(N)=O)NC(=O)[C@@H](NC(=O)CCOCCOCCOCCOCCNC(=O)CCC(=O)N3Cc4ccccc4C#Cc4ccccc43)C(C)C)cc2)cc1", "note": "[Compound 401]", "values": [
      {"measurement": "monocyte activation, in words", "setting": "[10]", "result": "activated monocyte"}
    ]}
  ]
}
